Measurements taken from patent US12448399B2, “Cereblon-based KRAS degrading PROTACs and uses related thereto” (Arvinas Operations, Inc., priority 2023, dated 2025).

Target: T1, KRas-G12D (Homo sapiens, UniProt P01116, G12D)
T1 construct: insert the HiBiT tag onto the N-terminus of one or more of the endogenous KRas alleles; host or cells: AsPC-1 HiBiT-KRasG12D knock-in clone (one tagged allele, two untagged KRasG12D alleles)
Assay: HiBiT Degradation Assay (G12D), AsPC-1 HiBiT-KRasG12D cells, 24 hr
Assay type: cell-based
Settings: for Dmax: ASPC1, AsPC-1 cells, maximum degradation observed; for DC50: AsPC-1 cells
Procedure, shortened: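 AsPC-1 cells with CRISPR N-terminal HiBiT knock-in on one endogenous KRasG12D allele, treated 24 hr at 37° C with compound titrations in 0.5% DMSO. Lytic HiBiT luminescence normalized to DMSO, fitted to a 4-parameter model for DC50 and Dmax. Parallel alamar blue (4 hr) checked viability.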

T1 sequence (P01116 1-188 isoform P01116-2 G12D): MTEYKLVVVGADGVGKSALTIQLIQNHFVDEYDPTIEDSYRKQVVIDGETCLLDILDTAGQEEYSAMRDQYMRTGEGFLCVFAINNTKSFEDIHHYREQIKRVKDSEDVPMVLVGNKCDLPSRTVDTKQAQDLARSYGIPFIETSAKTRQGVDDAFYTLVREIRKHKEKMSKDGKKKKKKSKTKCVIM

| SMILES | Dmax [%] | DC50 [µM] |
| --- | --- | --- |
| C#Cc1c(F)ccc2cc(O)cc(-c3ncc4c(N5C[C@H]6CC[C@@H](C5)N6)nc(OC[C@@H]5C[C@@H](OC6CCN(CC7CCN(c8ccc9c(c8Cl)CN(C8CCC(=O)NC8=O)C9=O)CC7)CC6)CN5C)nc4c3F)c12 (stereo partly drawn) [Compound 113, 3-(5-(4-((4-(((3R,5S)-5-(((4-((1R,5S)-3,8-diazabicyclo[3.2.1]octan-3-yl)-7-(8-ethynyl-7-fluoro-3-hydroxynaphthalen-1-yl)-8-fluoropyrido[4,3-d]pyrimidin-2-yl)oxy)methyl)-1-methylpyrrolidin-3-yl)oxy)piperidin-1-yl)methyl)piperidin-1-yl)-4-chloro-1-oxoisoindolin-2-yl)piperidine-2,6-dione] | > 70 | < 5.1 |
| C#Cc1c(F)ccc2cc(O)cc(-c3ncc4c(N5CC6CCC(C5)N6)nc(OC[C@@H]5CC[C@@H](COC(=O)N6CCN(c7ccc8c(c7)CN(C7CCC(=O)NC7=O)C8=O)CC6)N5C)nc4c3F)c12 (stereo partly drawn) [Compound 114, [(2S,5S)-5-{[(4-{3,8-diazabicyclo[3.2.1]octan-3-yl}-7-(8-ethynyl-7-fluoro-3-hydroxynaphthalen-1-yl)-8-fluoropyrido[4,3-d]pyrimidin-2-yl)oxy]methyl}-1-methylpyrrolidin-2-yl]methyl 4-[2-(2,6-dioxopiperidin-3-yl)-1-oxo-2,3-dihydro-1H-isoindol-5-yl]piperazine-1-carboxylate] | – | < 5.1 |
| C#Cc1c(F)ccc2cc(O)cc(-c3ncc4c(N5CC6CCC(C5)N6)nc(OC[C@@H]5C[C@@H](OC6CCN(CC7CCN(c8cccc9c8CN(C8CCC(=O)NC8=O)C9=O)CC7)CC6)CN5C)nc4c3F)c12 (stereo partly drawn) [Compound 115, 3-(4-{4-[(4-{[(3R,5S)-5-{[(4-{3,8-diazabicyclo[3.2.1]octan-3-yl}-7-(8-ethynyl-7-fluoro-3-hydroxynaphthalen-1-yl)-8-fluoropyrido[4,3-d]pyrimidin-2-yl)oxy]methyl}-1-methylpyrrolidin-3-yl]oxy}piperidin-1-yl)methyl]piperidin-1-yl}-1-oxo-2,3-dihydro-1H-isoindol-2-yl)piperidine-2,6-dione] | > 70 | < 5.1 |
| C#Cc1c(F)ccc2cc(O)cc(-c3ncc4c(N5CC6CCC(C5)N6)nc(OC[C@@H]5C[C@@H](OC6CCN(CC7CCN(c8ccc9c(c8)CN(C8CCC(=O)NC8=O)C9=O)CC7)CC6)CN5C)nc4c3F)c12 (some centres unmarked) [Compound 116] | > 70 | < 5.1 |
| C#Cc1c(F)ccc2cc(O)cc(-c3ncc4c(N5CC6CCC(C5)N6)nc(OC[C@@H]5CC[C@@H](COC(=O)N6CCN(c7cccc8c7CN(C7CCC(=O)NC7=O)C8=O)CC6)N5C)nc4c3F)c12 (stereo partly drawn) [Compound 117, [(2S,5S)-5-{[(4-{3,8-diazabicyclo[3.2.1]octan-3-yl}-7-(8-ethynyl-7-fluoro-3-hydroxynaphthalen-1-yl)-8-fluoropyrido[4,3-d]pyrimidin-2-yl)oxy]methyl}-1-methylpyrrolidin-2-yl]methyl 4-[2-(2,6-dioxopiperidin-3-yl)-1-oxo-2,3-dihydro-1H-isoindol-4-yl]piperazine-1-carboxylate] | – | 0.25 to 1 |
| CCc1cccc2cc(O)cc(-c3ncc4c(N5CC6CCC(C5)N6)nc(OC[C@@H]5C[C@@H](OC6CCN(c7cccc8c7CN(C7CCC(=O)NC7=O)C8=O)CC6)CN5C)nc4c3F)c12 (stereo partly drawn) [Compound 118, 3-[4-(4-{[(3R,5S)-5-{[(4-{3,8-diazabicyclo[3.2.1]octan-3-yl}-7-(8-ethyl-3-hydroxynaphthalen-1-yl)-8-fluoropyrido[4,3-d]pyrimidin-2-yl)oxy]methyl}-1-methylpyrrolidin-3-yl]oxy}piperidin-1-yl)-1-oxo-2,3-dihydro-1H-isoindol-2-yl]piperidine-2,6-dione] | – | > 1 |
| C#Cc1c(F)ccc2cc(O)cc(-c3ncc4c(N5CC6CCC(C5)N6)nc(OCCN5CCC6(CC5)CN(CC5(F)CCN(c7ccc8c(c7F)CN(C7CCC(=O)NC7=O)C8=O)CC5)C6)nc4c3F)c12 (centres unmarked) [Compound 119, 3-(5-{4-[(7-{2-[(4-{3,8-diazabicyclo[3.2.1]octan-3-yl}-7-(8-ethynyl-7-fluoro-3-hydroxynaphthalen-1-yl)-8-fluoropyrido[4,3-d]pyrimidin-2-yl)oxy]ethyl}-2,7-diazaspiro[3.5]nonan-2-yl)methyl]-4-fluoropiperidin-1-yl}-4-fluoro-1-oxo-2,3-dihydro-1H-isoindol-2-yl)piperidine-2,6-dione] | – | < 5.1 |
| C#Cc1c(F)ccc2cc(O)cc(-c3ncc4c(N5CC6CCC(C5)N6)nc(OCCN5CCC6(CC5)CCN(CC5(F)CCN(c7ccc8c(c7F)CN(C7CCC(=O)NC7=O)C8=O)CC5)CC6)nc4c3F)c12 (centres unmarked) [Compound 120, 3-(5-{4-[(9-{2-[(4-{3,8-diazabicyclo[3.2.1]octan-3-yl}-7-(8-ethynyl-7-fluoro-3-hydroxynaphthalen-1-yl)-8-fluoropyrido[4,3-d]pyrimidin-2-yl)oxy]ethyl}-3,9-diazaspiro[5.5]undecan-3-yl)methyl]-4-fluoropiperidin-1-yl}-4-fluoro-1-oxo-2,3-dihydro-1H-isoindol-2-yl)piperidine-2,6-dione] | > 70 | < 5.1 |
| C#Cc1c(F)ccc2cc(O)cc(-c3ncc4c(N5CC6CCC(C5)N6)nc(OCCN5CCC6(CC5)CCN(CC5CCN(c7ccc8c(c7F)CN(C7CCC(=O)NC7=O)C8=O)CC5)CC6)nc4c3F)c12 (centres unmarked) [Compound 121, 3-[5-[4-[[9-[2-[4-(3,8-diazabicyclo[3.2.1]octan-3-yl)-7-(8-ethynyl-7-fluoro-3-hydroxy-1-naphthyl)-8-fluoro-pyrido[4,3-d]pyrimidin-2-yl]oxyethyl]-3,9-diazaspiro[5.5]undecan-3-yl]methyl]-1-piperidyl]-4-fluoro-1-oxo-isoindolin-2-yl]piperidine-2,6-dione] | > 70 | < 5.1 |
| C#Cc1c(F)ccc2cc(O)cc(-c3ncc4c(N5CC6CCC(C5)N6)nc(OC[C@@H]5C[C@@H](OC6CCN(CC7CCN(c8ccc9c(c8F)CN(C8CCC(=O)NC8=O)C9=O)CC7)CC6)CN5C)nc4c3F)c12 (stereo partly drawn) [Compound 122, 3-(5-{4-[(4-{[(3R,5S)-5-{[(4-{3,8-diazabicyclo[3.2.1]octan-3-yl}-7-(8-ethynyl-7-fluoro-3-hydroxynaphthalen-1-yl)-8-fluoropyrido[4,3-d]pyrimidin-2-yl)oxy]methyl}-1-methylpyrrolidin-3-yl]oxy}piperidin-1-yl)methyl]piperidin-1-yl}-4-fluoro-1-oxo-2,3-dihydro-1H-isoindol-2-yl)piperidine-2,6-dione] | > 70 | < 5.1 |
| C#Cc1c(F)ccc2cc(O)cc(-c3ncc4c(N5CC6CCC(C5)N6)nc(OCCN5CCC(CC6CCN(CC7CCN(c8ccc(F)c9c8CN(C8CCC(=O)NC8=O)C9=O)CC7)CC6)CC5)nc4c3F)c12 (centres unmarked) [Compound 123] | > 70 | < 5.1 |
| C#Cc1c(F)ccc2cc(O)cc(-c3ncc4c(N5CC6CCC(C5)N6)nc(OCCN5CCC(F)(CC6CCN(CC7CCN(c8cccc9c8CN(C8CCC(=O)NC8=O)C9=O)CC7)CC6)CC5)nc4c3F)c12 (centres unmarked) [Compound 124, 3-{4-[4-({4-[(1-{2-[(4-{3,8-diazabicyclo[3.2.1]octan-3-yl}-7-(8-ethynyl-7-fluoro-3-hydroxynaphthalen-1-yl)-8-fluoropyrido[4,3-d]pyrimidin-2-yl)oxy]ethyl}-4-fluoropiperidin-4-yl)methyl]piperidin-1-yl}methyl)piperidin-1-yl]-1-oxo-2,3-dihydro-1H-isoindol-2-yl}piperidine-2,6-dione] | > 70 | < 5.1 |
| C#Cc1c(F)ccc2cc(O)cc(-c3ncc4c(N5CC6CCC(C5)N6)nc(OCCN5CCC(CC6CCN(CC7(F)CCN(c8cccc9c8CN(C8CCC(=O)NC8=O)C9=O)CC7)CC6)CC5)nc4c3F)c12 (centres unmarked) [Compound 125, 3-{4-[4-({4-[(1-{2-[(4-{3,8-diazabicyclo[3.2.1]octan-3-yl}-7-(8-ethynyl-7-fluoro-3-hydroxynaphthalen-1-yl)-8-fluoropyrido[4,3-d]pyrimidin-2-yl)oxy]ethyl}piperidin-4-yl)methyl]piperidin-1-yl}methyl)-4-fluoropiperidin-1-yl]-1-oxo-2,3-dihydro-1H-isoindol-2-yl}piperidine-2,6-dione] | – | < 5.1 |
| C#Cc1c(F)ccc2cc(O)cc(-c3ncc4c(N5CC6CCC(C5)N6)nc(OCCN5CCC(CN6CCC(CC7CCN(c8cccc9c8CN(C8CCC(=O)NC8=O)C9=O)CC7)CC6)CC5)nc4c3F)c12 (centres unmarked) [Compound 126, 3-{4-[4-({1-[(1-{2-[(4-{3,8-diazabicyclo[3.2.1]octan-3-yl}-7-(8-ethynyl-7-fluoro-3-hydroxynaphthalen-1-yl)-8-fluoropyrido[4,3-d]pyrimidin-2-yl)oxy]ethyl}piperidin-4-yl)methyl]piperidin-4-yl}methyl)piperidin-1-yl]-1-oxo-2,3-dihydro-1H-isoindol-2-yl}piperidine-2,6-dione] | > 70 | < 5.1 |
| C#Cc1c(F)ccc2cc(O)cc(-c3nc(N4CC5CCC(C4)N5)c4cnc(OCCN5CCC6(CC5)CN(CC5CCN(c7ccc8c(c7F)CN(C7CCC(=O)NC7=O)C8=O)CC5)C6)nc4c3F)c12 (centres unmarked) [Compound 127] | – | < 5.1 |
| C#Cc1c(F)ccc2cc(O)cc(-c3ncc4c(N5CC6CCC(C5)N6)nc(OCCN5CCC(CCC6CCN(c7cccc8c7CN(C7CCC(=O)NC7=O)C8=O)CC6)CC5)nc4c3F)c12 (centres unmarked) [Compound 128, 3-(4-{4-[2-(1-{2-[(4-{3,8-diazabicyclo[3.2.1]octan-3-yl}-7-(8-ethynyl-7-fluoro-3-hydroxynaphthalen-1-yl)-8-fluoropyrido[4,3-d]pyrimidin-2-yl)oxy]ethyl}piperidin-4-yl)ethyl]piperidin-1-yl}-1-oxo-2,3-dihydro-1H-isoindol-2-yl)piperidine-2,6-dione] | > 70 | 0.1 to 5.25 |
